Laboratory results taken from patent US11046689B2, “Selective estrogen receptor down-regulators” (AstraZeneca AB, priority 2017, dated 2021).

What follows are molecules tested against Estrogen Receptor (ER) in MCF-7 cells (Homo sapiens (Human), UniProt P03372) (assay: MCF-7 ER down-regulation assay (immuno-fluorescence)). Conditions: stated where not >90%.
Type: cell-based

Estrogen Receptor (ER) in MCF-7 cells, sequence (P03372 whole entry): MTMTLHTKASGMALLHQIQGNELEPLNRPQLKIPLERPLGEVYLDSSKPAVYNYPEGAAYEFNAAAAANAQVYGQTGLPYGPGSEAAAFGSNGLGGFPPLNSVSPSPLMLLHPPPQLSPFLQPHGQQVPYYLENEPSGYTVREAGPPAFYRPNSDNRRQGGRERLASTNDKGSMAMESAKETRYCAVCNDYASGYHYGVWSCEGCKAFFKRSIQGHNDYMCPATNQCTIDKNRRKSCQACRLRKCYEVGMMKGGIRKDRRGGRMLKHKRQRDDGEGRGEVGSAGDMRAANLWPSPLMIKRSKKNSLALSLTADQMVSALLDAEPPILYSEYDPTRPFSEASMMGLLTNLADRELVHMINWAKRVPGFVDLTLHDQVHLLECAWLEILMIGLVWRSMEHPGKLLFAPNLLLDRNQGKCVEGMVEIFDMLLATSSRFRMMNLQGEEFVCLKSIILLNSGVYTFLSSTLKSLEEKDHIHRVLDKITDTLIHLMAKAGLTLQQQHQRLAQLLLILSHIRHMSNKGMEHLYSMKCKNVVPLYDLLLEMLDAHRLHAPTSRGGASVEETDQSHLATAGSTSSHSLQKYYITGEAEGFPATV

Structure (SMILES)	% downregulation (shown in brackets)
COc1ccc(O[C@H](C)CNCCCF)cc1[C@@H]1c2[nH]c3ccccc3c2C[C@@H](C)N1CC(F)(F)CO [Example 47, 2,2-difluoro-3-((1R,3R)-1-(5-(((R)-1-((3-fluoropropyl)amino)propan-2-yl)oxy)-2-methoxyphenyl)-3-methyl-1,3,4,9-tetrahydro-2H-pyrido[3,4-b]indol-2-yl)propan-1-ol]	81%
COc1ccc(OC[C@@H](C)NCCCF)cc1[C@@H]1c2[nH]c3ccccc3c2C[C@@H](C)N1CC(F)(F)CO [Example 50, 2,2-difluoro-3-((1R,3R)-1-(5-((R)-2-((3-fluoropropyl)amino)propoxy)-2-methoxyphenyl)-3-methyl-1,3,4,9-tetrahydro-2H-pyrido[3,4-b]indol-2-yl)propan-1-ol]	81%
COCc1ccc(OCCNCCCF)cc1[C@@H]1c2[nH]c3ccccc3c2C[C@@H](C)N1CC(F)(F)F [Example 71, 3-fluoro-N-(2-(4-(methoxy-methyl)-3-((1R,3R)-3-methyl-2-(2,2,2-trifluoroethyl)-2,3,4,9-tetrahydro-1H-pyrido[3,4-b]indol-1-yl)phenoxy)ethyl)propan-1-amine]	90%
Cc1c(OCCNCCCF)ccc(F)c1[C@@H]1c2[nH]c3ccccc3c2CC(C)(C)N1C[C@H](C)C(=O)O [Example 134, (S)-3-((R)-1 (6-fluoro-3-(2-((3-fluoro-propyl)amino)ethoxy)-2-methylphenyl)-3,3-dimethyl-1,3,4,9-tetrahydro-2H-pyrido[3,4-b]indol-2-yl)-2-methyl-propanoic acid]	85%
C[C@@H]1Cc2c([nH]c3ccccc23)[C@@H](c2c(F)ccc(OCCN(C)CCCF)c2F)N1C[C@H](C)C(=O)O [Example 144]	88%
C[C@@H]1Cc2c([nH]c3ccccc23)[C@@H](c2c(F)ccc(OCCN(C)CCCF)c2C(F)F)N1C[C@H](C)C(=O)O [Example 148, (S)-3-((1R,3R)-1-(2-(difluoro-methyl)-6-fluoro-3-(2-((3-fluoro-propyl)(methyl)amino)ethoxy)phenyl)-3-methyl-1,3,4,9-tetrahydro-2H-pyrido[3,4-b]indol-2-yl)-2-methyl-propanoic acid]	68%
Cc1c(OCCN(C)CCCF)ccc(F)c1[C@@H]1c2[nH]c3ccccc3c2C[C@@H](C(F)(F)F)N1C[C@H](C)C(=O)O [Example 149, (S)-3-((1R,3S)-1-(6-fluoro-3-(2-((3-fluoropropyl)(methyl)amino)ethoxy)-2-methylphenyl)-3-(trifluoro-methyl)-1,3,4,9-tetrahydro-2H-pyrido[3,4-b]indol-2-yl)-2-methyl-propanoic acid]	86%

Next, values leading:

% downregulation (shown in brackets)	Structure (SMILES)
−(41%)	C[C@@H]1Cc2c([nH]c3ccccc23)[C@@H](c2cccc(OCCNCCCF)n2)N1CC(F)(F)F [Example 34, 3-fluoro-N-(2-((6-((1S,3R)-3-methyl-2-(2,2,2-trifluoroethyl)-2,3,4,9-tetrahydro-1H-pyrido[3,4-b]indol-1-yl)pyridin-2-yl)oxy)ethyl)propan-1-amine]
−(40%)	COc1ccc(OCCNCCCF)cc1[C@@H]1c2[nH]c3ccccc3c2C[C@@H](C)N1C[C@H](C)C(=O)O [Example 53, (S)-3-((1R,3R)-1-(5-(2-((3-fluoropropyl)amino)ethoxy)-2-methoxy-phenyl)-3-methyl-1,3,4,9-tetrahydro-2H-pyrido[3,4-b]indol-2-yl)-2-methyl-propanoic acid]
90%	COc1ccc(OCCNCCCF)c(F)c1[C@@H]1c2[nH]c3ccccc3c2C[C@@H](C)N1CC1(F)CC1 [Example 83, 3-fluoro-N-(2-(2-fluoro-3-((1R,3R)-2-((1-fluorocyclo-propyl)methyl)-3-methyl-2,3,4,9-tetrahydro-1H-pyrido[3,4-b]indol-1-yl)-4-methoxy-phenoxy)ethyl)propan-1-amine]
83%	COc1ccc(OCCNCCCF)c(F)c1[C@@H]1c2[nH]c3ccccc3c2C[C@@H](C)N1CC1(F)COC1 [Example 84, 3-fluoro-N-(2-(2-fluoro-3-((1R,3R)-2-((3-fluorooxetan-3-yl)methyl)-3-methyl-2,3,4,9-tetrahydro-1H-pyrido[3,4-b]indol-1-yl)-4-methoxy-phenoxy)ethyl)propan-1-amine]
79%	C[C@@H]1Cc2c([nH]c3ccccc23)[C@@H](c2c(F)ccc(OCCN(C)CCCF)c2F)N1CC1(F)COC1 [Example 154, N-(2-(2,4-difluoro-3-((1R,3R)-2-((3-fluorooxetan-3-yl)methyl)-3-methyl-2,3,4,9-tetrahydro-1H-pyrido[3,4-b]indol-1-yl)phenoxy)ethyl)-3-fluoro-N-methyl-propan-1-amine]
